Structures are written as SMILES. Read-outs that look alike come from different tables or passages of the source.

We go through 30 compounds from patent publication US6875760B2 (Novo Nordisk A/S, priority 1999, dated 2005).

The target in the assay is T1, human glucagon receptor (Homo sapiens, UniProt P47871).
T1 construct: expressed in transfected cells; host or cells: BHK (baby hamster kidney) cells
The experiment in a line: Glucagon Binding Assay (III). The conditions noted are these: BHK cell membranes, WGA SPA beads, 125I-glucagon. The essentials: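 Membranes from BHK cells transfected with the human receptor, prepared at 4 °C, were used in a WGA-bead scintillation proximity binding format. Plates were shaken for 4 hours, left to settle 8–48 hours and then counted. Non-specific binding was defined with 500 nM glucagon.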

Where [1] appears, read: read-out: Glu Bd Assay (III) IC50.

T1 sequence (P47871 26-477): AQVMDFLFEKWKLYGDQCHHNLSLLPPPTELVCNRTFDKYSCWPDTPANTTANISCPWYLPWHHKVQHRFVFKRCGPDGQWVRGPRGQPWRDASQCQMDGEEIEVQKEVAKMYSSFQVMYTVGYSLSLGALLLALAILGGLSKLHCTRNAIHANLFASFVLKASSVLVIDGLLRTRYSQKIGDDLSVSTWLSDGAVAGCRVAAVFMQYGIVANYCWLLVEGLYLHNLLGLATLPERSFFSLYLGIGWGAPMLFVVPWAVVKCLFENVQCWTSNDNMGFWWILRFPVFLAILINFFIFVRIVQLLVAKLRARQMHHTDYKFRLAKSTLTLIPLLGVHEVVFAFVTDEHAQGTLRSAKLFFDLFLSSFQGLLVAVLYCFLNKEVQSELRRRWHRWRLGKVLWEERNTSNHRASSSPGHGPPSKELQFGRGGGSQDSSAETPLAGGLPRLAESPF

As for `N#Cc1cc(NC(=O)N(Cc2ccc(C(=O)Nc3nn[nH]n3)cc2)c2ccc(C3CCCCC3)cc2)cc(C(F)(F)F)c1` [Example 359, 4-[3-(3-Cyano-5-trifluoromethylphenyl)-1-(4-cyclohexylphenyl)ureidomethyl]-N-(2H-tetrazol-5-yl)benzamide], the IC50 under setting [1] turned out to be 16 nM.
Still for that read-out and setting: the result for `O=C(Nc1nn[nH]n1)c1ccc(CN(C(=O)Nc2ccc(OC(F)(F)F)c(-c3nc4ccccc4o3)c2)c2ccc(C3CCCCC3)cc2)cc1` [Example 360, 4-[3-(3-Benzoxazol-2-yl-4-trifluoromethoxyphenyl)-1-(4-cyclohexylphenyl)ureidomethyl]-N-(2H-tetrazol-5-yl)benzamide] reads 8 nM; that for `O=C(Nc1nn[nH]n1)c1ccc(CN(C(=O)Nc2cc(C(F)(F)F)ccc2C(F)(F)F)c2ccc(C3=CCCCC3)cc2)cc1` [Example 361, 4-[3-(2,5-Bis(trifluoromethyl)phenyl)-1-(4-cyclohex-1-enylphenyl)ureidomethyl]-N-(2H-tetrazol-5-yl)benzamide], 119 nM.
`Cc1cc(NC(=O)N(Cc2ccc(C(=O)Nc3nn[nH]n3)cc2)c2ccc(C3=CCCCC3)cc2)cc(C(F)(F)F)c1` [Example 362, 4-[1-(4-Cyclohex-1-enylphenyl)-3-(3-methyl-5-trifluoromethylphenyl)ureidomethyl]-N-(2H-tetrazol-5-yl)benzamide]: the IC50 under setting [1] was found to be 13 nM.
Turning to `Cc1cc(NC(=O)N(Cc2ccc(C(=O)Nc3nn[nH]n3)cc2)C2CCC(C(C)(C)C)CC2)cc(C(F)(F)F)c1` (stereo not drawn) [Example 363, 4-[1-(4-tert-Butylcyclohexyl)-3-(3-methyl-5-trifluoromethylphenyl)ureidomethyl]-N-(2H-tetrazol-5-yl)benzamide], the IC50 under setting [1] is 23 nM.
The same measure, in the same setting: the result for `O=C(O)c1ccc2nc(NC(=O)N(Cc3ccc(C(=O)Nc4nn[nH]n4)cc3)c3ccc(C4CCCCC4)cc3)sc2c1` [Example 364, 2-{3-(4-Cyclohexylphenyl)-3-[4-(2H-tetrazol-5-ylcarbamoyl)benzyl]ureido}benzothiazole-6-carboxylic acid] reads 2680 nM; that for `COc1ccc2nc(NC(=O)N(Cc3ccc(C(=O)Nc4nn[nH]n4)cc3)c3ccc(C4CCCCC4)cc3)sc2c1` [Example 365, 4-[1-(4-Cyclohexylphenyl)-3-(6-methoxybenzothiazol-2-yl)ureidomethyl]-N-(2H-tetrazol-5-yl)benzamide], 1430 nM.
Same read-out and setting: the result for `O=C(Nc1nn[nH]n1)c1ccc(CN(C(=O)Nc2ccc3c(c2)C(F)(F)OC(F)(F)O3)c2ccc(C3CCCCC3)cc2)cc1` [Example 366, 4-[1-(4-Cyclohexylphenyl)-3-(2,2,4,4-tetrafluoro-4H-benzo[1,3]dioxin-6-yl)ureidomethyl]-N-(2H-tetrazol-5-yl)benzamide] reads 12 nM; that for `CCCCOc1ccc(NC(=O)N(Cc2ccc(C(=O)Nc3nn[nH]n3)cc2)c2ccc(C(C)(C)C)cc2)cc1S(C)(=O)=O` [Example 367, 4-[3-(4-Butoxy-3-methylsulfonylphenyl)-1-(4-tert-butylphenyl)ureidomethyl]-N-(2H-tetrazol-5-yl)benzamide], 34 nM.
Regarding `CCCCOc1ccc(NC(=O)N(Cc2ccc(C(=O)Nc3nn[nH]n3)cc2)c2ccc(C3CCCCC3)cc2)cc1S(C)(=O)=O` [Example 368, 4-[3-(4-Butoxy-3-methylsulfonylphenyl)-1-(4-cyclohexylphenyl)ureidomethyl]-N-(2H-tetrazol-5-yl)benzamide], under setting [1], the IC50 turned out to be 37 nM.
On the same count and under the same terms, as for `CS(=O)(=O)Cc1cccc(NC(=O)N(Cc2ccc(C(=O)Nc3nn[nH]n3)cc2)c2ccc(C3CCCCC3)cc2)c1` [Example 369, 4-[1-(4-Cyclohexylphenyl)-3-(3-methylsulfonylmethylphenyl)ureidomethyl]-N-(2H-tetrazol-5-yl)benzamide], the figure is 558 nM.
Still for that read-out and setting: as for `Cn1nnc(-c2cccc(NC(=O)N(Cc3ccc(C(=O)Nc4nn[nH]n4)cc3)c3ccc(C(C)(C)C)cc3)c2)n1` [Example 370, 4-{1-(4-tert-Butylphenyl)-3-[3-(2-methyl-2H-tetrazol-5-yl)phenyl]ureidomethyl}-N-(2H-5-yl)benzamide], the figure is 87 nM.
For the compound `Cn1nnc(-c2cccc(NC(=O)N(Cc3ccc(C(=O)Nc4nn[nH]n4)cc3)c3ccc(C4CCCCC4)cc3)c2)n1` [Example 371], under setting [1], the IC50 turned out to be 52 nM.
As to `CCCCc1ccc(N(Cc2ccc(C(=O)NCCC(=O)O)cc2)C(=O)Nc2ccc(OC(F)(F)F)cc2)cc1` [Example 372, 3-{4-[1-(4-Butylphenyl)-3-(4-trifluoromethoxyphenyl)ureidomethyl]benzoylamino}propionic acid], under setting [1], the IC50 stood at 90 nM.
The same measure, in the same setting: as for `CC(C)(C)c1ccc(N(Cc2ccc(C(=O)NCCC(=O)O)cc2)C(=O)Nc2ccc(OC(F)(F)F)cc2)cc1` [Example 373, 3-{4-[1-(4-tert-Butylphenyl)-3-(4-trifluoromethoxyphenyl)ureidomethyl]benzoylamino}propionic acid], the figure is 96 nM; as for `CC(C)(C)c1ccc(N(Cc2ccc(C(=O)Nc3nn[nH]n3)cc2)C(=O)Nc2ccc(OC(F)(F)F)cc2)cc1` [Example 374, 4-[1-(4-tert-Butylphenyl)-3-(4-trifluoromethoxyphenyl)ureidomethyl]-N-(2H-tetrazol-5-yl)benzamide], 10 nM; as for `CC(C)(C)[C@H]1CC[C@H](N(Cc2ccc(C(=O)Nc3nn[nH]n3)cc2)C(=O)Nc2cc(C(F)(F)F)cc(C(F)(F)F)c2)CC1` [Example 375, 4-[3-(3,5-Bis(trifluoromethyl)phenyl)-1-(trans-4-tert-butylcyclohexyl)ureidomethyl]-N-(2H-tetrazol-5-yl)benzamide], 29 nM.
In the case of `CC(C)(C)[C@H]1CC[C@H](N(Cc2ccc(C(=O)NCCC(=O)NO)cc2)C(=O)Nc2ccc(OC(F)(F)F)cc2)CC1` [Example 376, 4-[1-(trans-4-tert-Butylcyclohexyl)-3-(4-trifluoromethoxyphenyl)ureidomethyl]-N-(2-hydroxycarbamoylethyl)benzamide], the IC50 under setting [1] turned out to be 391 nM.
`CC(C)(C)[C@H]1CC[C@H](N(Cc2ccc(C(=O)NCC(=O)NO)cc2)C(=O)Nc2ccc(OC(F)(F)F)cc2)CC1` [Example 377, 4-[1-(trans-4-tert-Butylcyclohexyl)-3-(4-trifluoromethoxyphenyl)ureidomethyl]-N-hydroxycarbamomethyl-benzamide]: the IC50 (Glu Bd Assay (III) IC50 (nM)) was 2960 nM.
Turning to `CCCCN1C(=O)c2ccc(NC(=O)N(Cc3ccc(C(=O)Nc4nn[nH]n4)cc3)c3ccc(C(C)(C)C)cc3)cc2C1=O` [Example 378, 4-[3-(2-Butyl-1,3-dioxo-2,3-dihydro-1H-isoindol-5-yl)-1-(4-tert-butylphenyl)ureidomethyl]-N-(2H-tetrazol-5-yl)benzamide], under setting [1], the IC50 was found to be 23 nM.
On the same count and under the same terms, the result for `COc1cccc2cc(C(C)NC(=O)N(Cc3ccc(C(=O)Nc4nn[nH]n4)cc3)c3ccc(C4CCCCC4)cc3)ccc12` (stereo not drawn) [Example 379, 4-{1-(4-Cyclohexylphenyl)-3-[1-(5-methoxynaphthalen-2-yl)ethyl]ureidomethyl}-N-(2H-tetrazol-5-yl)benzamide] reads 66 nM; that for `CC(C)(C)[C@H]1CC[C@H](N(Cc2ccc(C(=O)Nc3nn[nH]n3)cc2)NC(=O)c2ccc(OC(F)(F)F)cc2)CC1` [Example 380, 4-[N-(trans-4-tert-Butylcyclohexyl)-N′-(4-trifluoromethoxybenzoyl)hydrazinomethyl]-N-(2H-tetrazol-5-yl)benzamide], 71 nM.
Same read-out and setting: the result for `O=C(O)CCNC(=O)c1ccc(CN(C(=O)Nc2ccc(OC(F)(F)F)cc2)C2CCN(C(=O)C3CC3)CC2)cc1` [Example 381, 3-{4-[1-(1-Cyclopropanecarbonylpiperidin-4-yl)-3-(4-trifluoromethoxyphenyl)ureidomethyl]benzoylamino}propionic acid] reads 1980 nM; that for `CCN(CC)C(=O)C1CCC(N(Cc2ccc(C(=O)NCCC(=O)O)cc2)C(=O)Nc2ccc(OC(F)(F)F)cc2)CC1` (stereo not drawn) [Example 382, 3-{4-[1-(4-Diethylcarbamoylcyclohexyl)-3-(4-trifluoromethoxyphenyl)ureidomethyl]benzoylamino}propionic acid], 781 nM.
On to `O=C(O)CCNC(=O)c1ccc(CN(C(=O)Nc2ccc(OC(F)(F)F)cc2)C(=O)Nc2ccc(OC(F)(F)F)cc2)cc1` [Example 383, 3-{4-[1,5-Bis(4-trifluoromethoxyphenyl)-3-biuretmethyl]benzoylamino}propionic acid], for which, under setting [1], the concentration for half-maximal inhibition (IC50) stood at 931 nM.
Take `O=C(O)CCNC(=O)c1ccc(CN(Cc2ccc(C(F)(F)F)cc2)Cc2ccc(C(F)(F)F)cc2)cc1` [Example 384, 3-(4-{[Bis(4-trifluoromethylbenzyl)amino]methyl}benzoylamino)propionic acid]: the IC50 under setting [1] was determined as 324 nM.
Turning to `CCN(c1ccccc1)S(=O)(=O)c1cc(NC(=O)N(Cc2ccc(C(=O)NCCC(=O)O)cc2)[C@H]2CC[C@H](C3CCCCC3)CC2)ccc1C` [Example 390, 3-(4-{1-(trans-4-Cyclohexylcyclohexyl)-3-[3-(N-ethyl-N-phenylsulfamoyl)-4-methylphenyl]ureidomethyl}benzoylamino)propionic acid], the IC50 under setting [1] is 6 nM.
The same measure, in the same setting: the result for `O=C(O)CCNC(=O)c1ccc(CN(C(=O)NCc2ccccc2-c2ccccc2)[C@H]2CC[C@H](C3CCCCC3)CC2)cc1` [Example 391] reads 21 nM; that for `COC(=O)c1cc(-c2cccc(NC(=O)N(Cc3ccc(C(=O)NCCC(=O)O)cc3)[C@H]3CC[C@H](C4CCCCC4)CC3)c2)oc1C` [Example 392, 5-(3-{3-(trans-4-Cyclohexylcyclohexyl)-3-[4-(2-carboxyethylcarbamoyl)benzyl]ureido}phenyl)-2-methylfuran-3-carboxylic acid methyl ester], 36 nM.
Same read-out and setting: as for `O=C(O)CCNC(=O)c1ccc(CN(C(=O)Nc2cc(Br)cc(C(F)(F)F)c2)[C@H]2CC[C@H](C3CCCCC3)CC2)cc1` [Example 393, 3-{4-[1-(trans-4-Cyclohexylcyclohexyl)-3-(3-bromo-5-trifluoromethylphenyl)ureidomethyl]benzoylamino}propionic acid], the figure is 17 nM.
